Reference: patent US20230057984A1, “NORMALIZATION OF CULTURE OF CORNEAL ENDOTHELIAL CELLS” (KYOTO PREFECTURAL PUBLIC UNIVERSITY CORPORATION, priority 2011, published 2023)

How the values were obtained:
Type in all cases: cell-based
[1] = system: Human corneal endothelial cells; assay: Quantitative PCR of collagen type 1 and fibronectin in HCEC; conditions: SB431542 1 μM, normalized with GAPDH, relative to control
Method: Amplified DNA fragments were electrophoresed with 1.5% agarose gel (Nacalai Tesque, catalog number:01149-76), and detected by staining with ethidium bromide (Nacalai Tesque, catalog number: 14603-51). • Quantitative PCR was performed using the following TaqMan (registered trademark) (Invitrogen) primers. collagen type 1: Hs00164004_m1; fibronectin: Hs01549976_m1; GAPDH: Hs00266705_g1. The PCR was performed using a StepOne™ (Applied Biosystems) real-time PCR system. The GAPDH was used as an internal standard.

[2] = system: Human corneal endothelial cells; assay: ELISA of type 1 collagen in culture supernatant of HCEC; conditions: HCEC with vs without SB431542, n=5, P<0.05
Method: Corneal endothelial cells were mechanically exfoliated together with basement membranes from research corneas purchased from the Seattle bank, followed by exfoliating from the basement membranes using collagenase for collection, and then primary culturing. […] The collected human corneal endothelial cells were divided into two, and one group of them was cultured with the base culture medium as a control, and the other group of them was cultured with a base culture medium with SB431542 (TOCRIS, catalog number: 1614) added thereto such that the final concentration would be 1 μmol/L. • Enzyme-linked immunosorbent assay (ELISA): type 1 collagen in a culture supernatant of HCEC was assayed by using a ELISA kits for Collagen Type I Alpha 2 (COL1a2) (Uscn Life Science Inc., Wuhan, China) in accordance with the instruction manual of the manufacturer. Culture supernatants derived from HCEC, cultured together with SB431542 or without SB431542, were used for respective groups (n=5).

[3] = system: Human corneal endothelial cells; assay: Immunostaining and Western blot of Na+/K+-ATPase and ZO-1 in human corneal endothelial cells with SB431542 (FIG. 9A A, B); conditions: HCEC
Method: For tissue staining examination, cultured MCECs or HCECs were put into Lab-Tek™ Chamber Slides™ (NUNC A/S, Roskilde, Denmark), fixed with 4% formaldehyde for 10 minutes at a room temperature (RT), and incubated for 30 minutes with 1% bovine serum albumin (BSA). Specifically, cultured MCECs or HCECs on the Lab-Tek™ Chamber Slides™ (NUNCA/S, Roskilde, Denmark) were fixed at a room temperature for 10 minutes in 4% formaldehyde, followed by incubation for 30 minutes together with 1% bovine serum albumin (BSA). In order to examine the phenotype of CEC, immunohistochemical analysis was directed to a protein associated with tight junction, ZO-1 (Zymed Laboratories, Inc., South San Francisco, Calif.), a protein associated with the pumping function, Na^+/K^+-ATPase (Upstate Biotec, Inc., Lake Placid, N.Y.), fibronectin (BD, Franklin Lakes, N.J.), and actine. As markers associated with the function of CEC, ZO-1 and Na^+/K^+-ATPase were used; fibronectin and type 1 collagen were used to evaluate the change in a fibroblastic manner; and staining of actine was used to evaluate the phenotype of the cells. Staining of ZO-1, Na^+/K^+-ATPase, type 1 collagen and fibronectin was each performed using 1:200 dilution of ZO-1 polyclonal antibody, Na^+/K^+-ATPase monoclonal antibody, and fibronectin monoclonal antibody. As to secondary antibody, 1:2000 dilution of Alexa Fluor (registered trademark) 488 label or Alexa Fluor (registered trademark) 594 label goat antimouse IgG (Life Technologies) was used. Staining of actine was performed using 1:400 dilution of Alexa Fluor (registered trademark) 488 label phalloidin (Life Technologies). […] Next, the slides were observed through a fluorescence microscope (TCS SP2 AOBS; Leica Microsystems, Welzlar, Germany).
Next, reaction was allowed for 1 hour at a room temperature with ALEXA FLUOR 488 (INVITROGEN (catalog number: A21206)) and ALEXA FLUOR 594 (INVITROGEN (catalog number: A21203)), diluted with TBS-T by 1,000 fold. […] After washing, bands were detected using an ECL-ADVAVCE Western Blotting Detection Kit (GE healthcare Japan (catalog number: RPN2135V)). […]

Compound: NC(=O)c1ccc(-c2nc(-c3ccc4c(c3)OCO4)c(-c3ccccn3)[nH]2)cc1 [SB431542]
- expression of collagen type 1 at mRNA level (quantitative PCR) [1]: significantly decreased
- expression of fibronectin at mRNA level (quantitative PCR) [1]: significantly decreased
- secretion of collagen type 1 to the cell supernatant (ELISA) [2]: significantly down-regulated
- expression of Na+/K+-ATPase and ZO-1 (immunostaining) ([3]; 1 μM SB431542, in normal culture medium only a subpopulation of cells): expression was recognized in all the cells
- intracellular localization of Na+/K+-ATPase and ZO-1 ([3]; SB431542): allows for the intracellular localization of Na^+/K^+-ATPase and ZO-1 in a cell membrane
- protein expression of Na+/K+-ATPase and ZO-1 (Western blot) ([3]; SB431542 0.1 μM, 1 μM, 10 μM): makes it possible to maintain the protein expression thereof
